Patent US8685726B2, “Small molecules supporting pluripotent cell growth and methods thereof” (Viacyte, Inc., priority 2009, dated 2014)
“Also recorded” adds a separate entry of the source.

How the values were obtained:
Assay type in all cases: cell-based, human
[1] = test system: hES cells (e.g., BGO2 cells); test: Low-density colony forming / colony counting assay (AP+ colonies); settings: 10^4 cells/well, StemPro hESC SFM, 7 days; for support of colony formation at low density: compounds at 10 or 50 μM
Experimental: FIG. 2. Low density plating assay of hES cells (e.g., BGO2 cells). 10000 cells/well were plated in 6-well trays in StemPro® hESC SFM (Life Technologies) medium and stained with alkaline phosphatase (AP+) after 7 days. Y (Y27632), ACh (acetylcholine), NMDA (N-methyl-D-aspartic acid), NE ((−)-Norepinephrine), NE.Bit ((±)-Norepinephrine (+)-bitartrate). Compounds were added at 10 or 50 μM as indicated.
FIG. 3. Low density plating assay of hES cells. (A) 200-10000 cells/well were plated in […] trays in StemPro® hESC SFM medium, or StemPro® hESC SFM +50 μM NE, or +50 μM ACh, and stained with alkaline phosphatase (AP+) after 8 days. […] ACh (acetylcholine), NE ((±)-Norepinephrine (+)-bitartrate). […]
About 10^4 hES cells/well were plated in 6-well trays in StemPro® hESC SFM, in the presence of different compounds and cultured for about 7 days. The cultures were then fixed, stained for alkaline phosphatase activity and colonies were counted (FIG. 2). […] The (±)-Norepinephrine (+)-bitartrate salt was used for all subsequent experiments involving norepinephrine (NE) unless specifically described otherwise.
A similar colony counting experiment was performed using a range of cell densities (FIG. 3). […] See Robins and Schulz 2009, supra. […]

hES cells = test: Low-density real-time cell index monitoring (RT-CES impedance reader); settings: for survival/proliferation compared to DMSO controls: StemPro hESC SFM HIA, low-density impedance assay; for survival and expansion at low density, single factors and two-factor combinations: 50 μM (NE, ACh, Adenosine, GABA) or 10 μM (Y27632), 5 days
Experimental: FIG. 4. Titration of NE and ACh using the RT-CES impedance reader. 1000 hES cells/well were plated in StemPro® hESC SFM containing the indicated concentrations of small molecules (in μM). In such an assay, the timing of when the cell index rises is associated with the proportion of cells that survive and expand at low density.
FIG. 5. Combined effects of small molecules compound combinations in low cell density assays. (A) 1000 hES cells/well were plated in StemPro® hESC SFM containing small molecules at 50 μM (NE, ACh, Adenosine, GABA) or 10 μM (Y27632). The assay was carried out over 5 days using the RT-CES system.
FIG. 6. […] 1000 hES cells/well were plated in StemPro® hESC SFM containing Heregulin, IGF1 and Activin (HIA) and the indicated small molecules. […] Compounds were tested at 10 μM. The DMSO trace is an average of 8 wells. […] Compounds were tested at the indicated concentrations.
FIG. 7. […] 1000 hES cells/well were plated in StemPro® hESC SFM containing the indicated combinations of growth factors and small molecules. Heregulin (H), LR3-IGF1 (I), Activin (A).
FIG. 9. Low-density RT-CES assays of combinations of growth factors and neurotransmitters. 1000 hES cells/well were plated in StemPro® hESC SFM containing the indicated combinations of growth factors and small molecules. Heregulin (H), LR3-IGF1 (I), Activin (A). Small molecules were tested at 50 μM.
Furthermore, pluripotent cells can also be grown in 96-well culture devices that provide real-time measurements of impedance, which can be used to measure cell proliferation and viability using the RT-CES™ methods from ACEA Biosciences, Inc. (www (dot) aceabio (dot) com). Such an approach would enable a label-free identification and quantification of subtle or immediate effects on differentiable cells, as well as measurements of proliferation, apoptosis and changes to morphology, in real time.
To examine more closely the potency of individual neurotransmitters and determine if synergies exist between different factors, low-density assays were performed in real time using an impedance reader. The ACEA biosciences RT-CES system uses 96-well trays that contain embedded microsensors to monitor changes in electrical impedance, which is translated into a measure of cell index. Any overt alteration within a cell culture can be detected, including but not limited to cell proliferation, migration, cell spreading, apoptosis, differentiation and the like. […] Once an undifferentiated culture becomes confluent the cell index remains high, but tends to go down and up (scallop) between daily feedings. Conversely, differentiation is typically indicated by the appearance of distinctive patterns, such as peaks and troughs in the cell index, likely indicative of an epithelial-to-mesenchymal transition, flattening, cell migration, apoptosis or similar differentiation and growth related changes.
Human ES cells were plated at low density, 1000 cells/well, in RT-CES trays and cultured for 10 days (FIG. 4). Cells were plated directly in StemPro® hESC SFM containing carrier control (DMSO), NE, or ACh.

CyT49 cells = test: Suspension aggregate culture, cell counts and aggregate diameters
Experimental: FIG. 10. Effects of NE and ACh in suspension culture of hES cell. (A) 5×10^6 CyT49 cells were seeded in 5 ml StemPro® hESC SFM containing heregulin, LR3-IGF1, Activin and the indicated neurotransmitters at 50 μM in low-attachment 6-well trays and placed at 100 rpm. Undifferentiated suspension aggregates were imaged on day 4. (B) 24 hours after seeding, two wells from each condition were harvested and counted to determine the number of viable cells. (C) Cell counts of each condition when the cultures were split on day 4. (D) The images in (A) were used to determine aggregate diameters using the ImagePro software measurement tool. Average diameters and standard deviations from 50-100 aggregates from each condition are shown. (E) Passage 1 cell counting data. 5×10^6 CyT49 hES cells from p0 cells in (A) were seeded into the same conditions. The aggregates in the condition containing Y27632 were larger and had to be passaged 3 days after seeding, before the centers of the largest aggregates became necrotic. Conversely, the other conditions could be cultured for 6 days before passaging, resulting in higher cell counts.
FIG. 11. Suspension hES cell cultured with NE, […] remain undifferentiated. CyT49 cells were grown as suspension aggregates in the presence of NE, […] for 16 passages without differentiating morphologically. After p10, some cells were re-plated to adherent culture and examined by karyotyping and immunofluorescent staining for OCT4 and Tra-1-61. All cultures remained undifferentiated and expressed these pluripotency markers uniformly. (SP) StemPro® SFM HIA, NE (+NE at 50 μM), ACh (+ACh at 50 μM), NE/ACh (+NE/ACh at 50 μM). Karyotype data is shown to the right. […] Cultures containing ACh were aneuploid.
Small molecule ligands that support survival or self-renewal at low cell densities could also be expected to have beneficial effects in other culture formats. Applicants have previously developed a suspension culture system for hES cells that enables serial propagation of cells and effective expansion of cultures. Human ES cells, at least BG02 and CyT49 cells, have been maintained in suspension for greater than 10 passages without differentiation. The basis of the technique is to dissociate cultures to single cells with reagents that preserve high viability, such as Accutase™, TrypLE or cell dispersal buffer, then aggregate defined concentrations of cells in defined medium in rotational culture. These methods are described in more detail in International Application PCT/US2008/082356, entitled STEM CELL AGGREGATE SUSPENSION COMPOSITIONS AND METHODS OF DIFFERENTIATION THEREOF, filed Nov. 4, 2008; and International Application PCT/US2007/062755, entitled COMPOSITIONS AND METHODS FOR CULTURING DI[…], filed Feb. 23, 2007, which are herein incorporated by reference in their entireties. Self-aggregation of hES cells occurs in the absence of added extracellular matrix (ECM) or ECM-like proteins and is presumed to be driven in part by homotypic interaction of E-cadherin. The aggregates that are formed expand over 3-4 days and are kept apart from each other by the shear forces generated by rotational culture. Cells are blocked from differentiating by the self-renewal signaling provided by the defined medium and retain their pluripotent characteristics: marker expression, normal karyotype, and differentiation potential in vitro and in teratomas. […]

CN1CCCC1c1cccnc1 (stereo not shown) [nicotine]
support of colony formation at low density [1]: failed to support enhanced colony formation

NCCc1c[nH]cn1 [histamine]
support of colony formation at low density [1]: failed to support enhanced colony formation | survival/proliferation compared to DMSO controls (hES cells; 1000 cells/well): lack of robust activity

NCCc1c[nH]c2ccc(O)cc12 [serotonin]
survival/proliferation compared to DMSO controls (hES cells; 1000 cells/well): enhanced survival/proliferation

(−)-Norepinephrine
support of colony formation at low density [1]: supported elevated colony formation

Nc1ncnc2c1ncn2[C@@H]1O[C@H](CO)[C@@H](O)[C@H]1O [adenosine]
support of colony formation at low density [1]: supported elevated colony formation | survival and expansion at low density, single factors and two-factor combinations (hES cells; 1000 cells/well): less effective | time after plating at which cell index rises above background / expansion detectable (hES cells; 50 μM each factor, 1000 cells/well, StemPro hESC SFM): ~4.5 days

CN[C@H](CC(=O)O)C(=O)O [NMDA, N-methyl-D-aspartic acid]
support of colony formation at low density [1]: failed to support enhanced colony formation | survival/proliferation compared to DMSO controls (hES cells; 1000 cells/well): lack of robust activity

C[C@@H](N)[C@H]1CC[C@H](C(=O)Nc2ccncc2)CC1 [Y27632]
AP+ colonies counted ([1]; 6-well trays): 0 colonies | support of colony formation at low density [1]: did not support colony survival/expansion | survival and expansion at low density, single factors and two-factor combinations (hES cells; 1000 cells/well): did not survive or proliferate; also recorded: reduced the effects of NE, ACh, Adenosine and GABA | cells generated at passage 1 (CyT49 cells; passaged after 3 days): about 1.2×10^7 cells | aggregate size on day 4 (CyT49 cells; suspension, StemPro hESC SFM HIA, neurotransmitters 50 μM): fewer numbers of larger aggregates

B1: Activin: recombinant Activin A growth factor of the defined medium (protein, UniProt P08476 311-426, looked up)
Inhibin beta A chain: GLECDGKVNICCKKQFFVSFKDIGWNDWIIAPSGYHANYCEGECPSHIAGTSGSSLSFHSTVINHYRMRGHSPFANLKSCCVPTKLRPMSMLYYDDGQNIIKKDIQNMIVEECGCS
modifications: Inhibin beta A chain
role in plating, survival and/or expansion at low cell density (hES cells; low cell density): major negative role
